Assay results: ChEMBL document CHEMBL4732099, “ROS-responsive and multifunctional anti-Alzheimer prodrugs: Tacrine-ibuprofen hybrids via a phenyl boronate linker” (Eur J Med Chem, 2021)
Activity calls are given as the source filed them. The calls are words filed in the database; no cut-off is given here.

What was measured:
[1] = tested on: SH-SY5Y; experiment: Cytotoxicity against human SH-SY5Y cells assessed as reduction in cell viability at 7.81 to 31.25 uM measured after 72 hrs by MTT assay; type: cell-based; details: dose 7.81-31.25 µM
[2] = tested on: SH-SY5Y; experiment: Neuroprotective activity against H2O2-induced cytotoxicity in human SH-SY5Y cells assessed as cell viability at 5 uM preincubated for 6 hrs followed by H2O2 addition and measured after 24 hrs by MTT assay (reference value: 20%); type: functional; details: time 30 hrs, read-out: Activity
[3] = tested on: SH-SY5Y; experiment: Neuroprotective activity against H2O2-induced cytotoxicity in human SH-SY5Y cells assessed as cell viability at 20 uM preincubated for 6 hrs followed by H2O2 addition and measured after 24 hrs by MTT assay (reference value: 20%); type: functional; details: time 30 hrs, read-out: Activity
[4] = target: Acetylcholinesterase (Electrophorus electricus) (UniProt O42275); experiment: Inhibition of electric eel AChE at 10 uM using acetylthiocholine iodide as substrate preincubated for 5 mins followed by substrate addition and measured after 1 min by Ellman's method relative to control; details: time 6.0 min
[5] = target: Acetylcholinesterase (Electrophorus electricus, UniProt O42275); experiment: Inhibition of electric eel AChE using acetylthiocholine iodide as substrate preincubated for 5 mins followed by substrate addition and measured after 1 min in presence of H2O2 by Ellman's method
[6] = tested on: SH-SY5Y; experiment: Cytotoxicity against human SH-SY5Y cells assessed as reduction in cell viability at 31.25 uM measured after 72 hrs by MTT assay; type: cell-based
[7] = tested on: BV-2; experiment: Antiinflammatory activity in mouse BV-2 cells assessed as reduction in LPS-induced IL1beta mRNA expression preincubated for 6 hrs followed by LPS stimulation and measured after 24 hrs RT-qPCR analysis; type: functional, cell-based; details: dose 5-10 µM, time 30.0 hrs
[8] = tested on: BV-2; experiment: Antiinflammatory activity in mouse BV-2 cells assessed as reduction in LPS-induced TNFalpha mRNA expression preincubated for 6 hrs followed by LPS stimulation and measured after 24 hrs RT-qPCR analysis; type: functional, cell-based; details: dose 5-10 µM, time 30.0 hrs
[9] = tested on: BV-2; experiment: Antiinflammatory activity in mouse BV-2 cells assessed as fold change in LPS-induced IL1beta mRNA expression at 5 uM preincubated for 6 hrs followed by LPS stimulation and measured after 24 hrs RT-qPCR analysis (reference value: 3.68 +/- 0.02); type: functional; details: time 30 hrs
[10] = tested on: BV-2; experiment: Antiinflammatory activity in mouse BV-2 cells assessed as fold change in LPS-induced IL1beta mRNA expression at 10 uM preincubated for 6 hrs followed by LPS stimulation and measured after 24 hrs RT-qPCR analysis (reference value: 3.68 +/- 0.02); type: functional; details: time 30 hrs
[11] = tested on: BV-2; experiment: Antiinflammatory activity in mouse BV-2 cells assessed as fold change in LPS-induced TNFalpha mRNA expression at 5 uM preincubated for 6 hrs followed by LPS stimulation and measured after 24 hrs RT-qPCR analysis (reference value: 3.86 +/- 0.25); type: functional; details: time 30 hrs
[12] = tested on: BV-2; experiment: Antiinflammatory activity in mouse BV-2 cells assessed as fold change in LPS-induced TNFalpha mRNA expression at 10 uM preincubated for 6 hrs followed by LPS stimulation and measured after 24 hrs RT-qPCR analysis (reference value: 3.86 +/- 0.25); type: functional; details: time 30 hrs
[13] = tested on: BV-2; experiment: Antiinflammatory activity in mouse BV-2 cells assessed as reduction in LPS-induced ROS level at 10 uM preincubated for 6 hrs followed by LPS stimulation and measured after 18 hrs by DCFH-DA staining based laser confocal microscopic analysis; type: functional, cell-based
[14] = tested on: SH-SY5Y; experiment: Induction of apoptosis in human SH-SY5Y cells assessed as early apoptotic cells at 10 uM incubated for 24 hrs by annexin V FITC/propidium iodide staining based flow cytometry (reference value: […]); type: cell-based
[15] = tested on: SH-SY5Y; experiment: Induction of apoptosis in human SH-SY5Y cells assessed as late apoptotic cells at 10 uM incubated for 24 hrs by annexin V FITC/propidium iodide staining based flow cytometry (reference value: […]); type: cell-based
[16] = tested on: SH-SY5Y; experiment: Induction of apoptosis in human SH-SY5Y cells assessed as necrotic cells at 10 uM incubated for 24 hrs by annexin V FITC/propidium iodide staining based flow cytometry (reference value: 0.8 %); type: cell-based
[17] = tested on: SH-SY5Y; experiment: Neuroprotective activity against H2O2-induced apoptosis in human SH-SY5Y cells assessed as viable cells at 5 uM preincubated for 6 hrs followed by H2O2 addition and measured after 24 hrs by annexin V FITC/propidium iodide staining based flow cytometry (reference value: 41.7%); type: functional; details: time 30 hrs, read-out: Activity
[18] = tested on: SH-SY5Y; experiment: Neuroprotective activity against H2O2-induced apoptosis in human SH-SY5Y cells assessed as early apoptotic cells at 5 uM preincubated for 6 hrs followed by H2O2 addition and measured after 24 hrs by annexin V FITC/propidium iodide staining based flow cytometry (reference value: 0.9%); type: functional; details: time 30 hrs
[19] = tested on: SH-SY5Y; experiment: Neuroprotective activity against H2O2-induced apoptosis in human SH-SY5Y cells assessed as late apoptotic cells at 5 uM preincubated for 6 hrs followed by H2O2 addition and measured after 24 hrs by annexin V FITC/propidium iodide staining based flow cytometry (reference value: 13.1%); type: functional; details: time 30 hrs
[20] = tested on: SH-SY5Y; experiment: Neuroprotective activity against H2O2-induced apoptosis in human SH-SY5Y cells assessed as necrotic cells at 5 uM preincubated for 6 hrs followed by H2O2 addition and measured after 24 hrs by annexin V FITC/propidium iodide staining based flow cytometry (reference value: 44.3%); type: functional; details: time 30 hrs
[21] = tested on: SH-SY5Y; experiment: Neuroprotective activity against H2O2-induced apoptosis in human SH-SY5Y cells assessed as viable cells at 10 uM preincubated for 6 hrs followed by H2O2 addition and measured after 24 hrs by annexin V FITC/propidium iodide staining based flow cytometry (reference value: 41.7%); type: functional; details: time 30 hrs, read-out: Activity
[22] = tested on: SH-SY5Y; experiment: Neuroprotective activity against H2O2-induced apoptosis in human SH-SY5Y cells assessed as early apoptotic cells at 10 uM preincubated for 6 hrs followed by H2O2 addition and measured after 24 hrs by annexin V FITC/propidium iodide staining based flow cytometry (reference value: 0.9%); type: functional; details: time 30 hrs
[23] = tested on: SH-SY5Y; experiment: Neuroprotective activity against H2O2-induced apoptosis in human SH-SY5Y cells assessed as late apoptotic cells at 10 uM preincubated for 6 hrs followed by H2O2 addition and measured after 24 hrs by annexin V FITC/propidium iodide staining based flow cytometry (reference value: 13.1%); type: functional; details: time 30 hrs
[24] = tested on: SH-SY5Y; experiment: Neuroprotective activity against H2O2-induced apoptosis in human SH-SY5Y cells assessed as necrotic cells at 10 uM preincubated for 6 hrs followed by H2O2 addition and measured after 24 hrs by annexin V FITC/propidium iodide staining based flow cytometry (reference value: 44.3%); type: functional; details: time 30 hrs
[25] = tested on: SH-SY5Y; experiment: Neuroprotective activity against H2O2-induced apoptosis in human SH-SY5Y cells assessed as increase in viable cells preincubated for 6 hrs followed by H2O2 addition and measured after 24 hrs by annexin V FITC/propidium iodide staining based flow cytometry; type: functional, cell-based; details: dose 5-10 µM, time 30.0 hrs
[26] = tested on: HepG2; experiment: Hepatotoxicity in human HepG2 cells assessed as increase in ROS accumulation by measuring increase in green fluorescence at 25 to 50 uM measured after 24 hrs by ROS tracker based laser confocal microscopic analysis; type: toxicity, cell-based; details: hepg2, 24 h, dose 25-50 µM
[27] = tested on: SH-SY5Y; experiment: Neuroprotective activity against H2O2-induced apoptosis in human SH-SY5Y cells assessed as reduction in cells with red fluorescence at 10 uM preincubated for 6 hrs followed by H2O2 addition and measured after 24 hrs by calcein AM/propidium iodide staining based laser confocal microscope; type: functional, cell-based; details: time 30.0 hrs
[28] = tested on: SH-SY5Y; experiment: Neuroprotective activity against H2O2-induced apoptosis in human SH-SY5Y cells assessed as reduction in Bax expression preincubated for 6 hrs followed by H2O2 addition and measured after 24 hrs by Western blot analysis; type: functional, cell-based; details: dose 5-10 µM, time 30.0 hrs
[29] = tested on: SH-SY5Y; experiment: Neuroprotective activity against H2O2-induced apoptosis in human SH-SY5Y cells assessed as reduction in cleaved caspase-3 expression preincubated for 6 hrs followed by H2O2 addition and measured after 24 hrs by Western blot analysis; type: functional, cell-based; details: dose 5-10 µM, time 30.0 hrs
[30] = tested on: SH-SY5Y; experiment: Neuroprotective activity against H2O2-induced apoptosis in human SH-SY5Y cells assessed as increase in Bcl-2 expression preincubated for 6 hrs followed by H2O2 addition and measured after 24 hrs by Western blot analysis; type: functional, cell-based; details: dose 5-10 µM, time 30.0 hrs
[31] = tested on: Rattus norvegicus; experiment: Cognitive enhancing effect in Sprague-Dawley rat model of amyloid beta (25 to 35) peptide-induced memory impairment assessed as reduction in escape latency time at 0.9 mg per 100 g, […] qd for 4 weeks administered via gavage and measured after 4 to 5 days by Morris water maze test; type: functional, organism-based; details: time 32-33 day
[32] = tested on: Rattus norvegicus; experiment: Cognitive enhancing effect in Sprague-Dawley rat model of amyloid beta (25 to 35) peptide-induced memory impairment assessed as time spent in target platform at 0.9 mg per 100 g, […] qd for 4 weeks administered via gavage and measured after 5 days by Morris water maze test (reference value: 0.5 sec); type: functional; details: time 33 day
[33] = tested on: Rattus norvegicus; experiment: Cognitive enhancing effect in Sprague-Dawley rat model of amyloid beta (25 to 35) peptide-induced memory impairment assessed as number of platform crossing at 0.9 mg per 100 g, […] qd for 4 weeks administered via gavage and measured after 5 days by Morris water maze test (reference value: 0.4); type: functional; details: time 33 day
[34] = Prodrug activation assessed as hydrolysis of benzyl ester bonds in presence of H2O2 by 1H-NMR analysis
[35] = in vitro; details: human, SH-SY5Y cells
[36] = tested on: SH-SY5Y; experiment: Cytotoxicity against human SH-SY5Y cells assessed as reduction in cell viability at 7.81 to 15.62 uM measured after 72 hrs by MTT assay; type: cell-based; details: dose 7.81-15.62 µM

Acetylcholinesterase, sequence (O42275 whole entry): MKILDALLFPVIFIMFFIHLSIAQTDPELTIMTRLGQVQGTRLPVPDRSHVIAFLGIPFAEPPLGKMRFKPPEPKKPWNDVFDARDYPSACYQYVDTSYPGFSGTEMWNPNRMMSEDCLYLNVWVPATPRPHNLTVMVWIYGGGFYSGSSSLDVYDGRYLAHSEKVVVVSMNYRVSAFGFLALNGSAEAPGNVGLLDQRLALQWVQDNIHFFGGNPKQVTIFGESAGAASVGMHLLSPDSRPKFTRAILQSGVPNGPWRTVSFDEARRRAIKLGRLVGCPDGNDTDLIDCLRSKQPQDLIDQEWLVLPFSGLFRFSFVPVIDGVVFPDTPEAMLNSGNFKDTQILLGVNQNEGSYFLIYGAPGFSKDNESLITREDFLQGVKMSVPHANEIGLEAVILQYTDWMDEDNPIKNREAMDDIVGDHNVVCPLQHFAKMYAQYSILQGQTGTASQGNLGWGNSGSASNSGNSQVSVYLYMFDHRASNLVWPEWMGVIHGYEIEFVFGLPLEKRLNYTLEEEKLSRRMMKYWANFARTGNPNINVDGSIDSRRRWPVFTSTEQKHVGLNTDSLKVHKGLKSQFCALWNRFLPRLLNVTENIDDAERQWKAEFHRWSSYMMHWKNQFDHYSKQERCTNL
Acetylcholinesterase (Electrophorus electricus), sequence (O42275 24-633 limits assumed): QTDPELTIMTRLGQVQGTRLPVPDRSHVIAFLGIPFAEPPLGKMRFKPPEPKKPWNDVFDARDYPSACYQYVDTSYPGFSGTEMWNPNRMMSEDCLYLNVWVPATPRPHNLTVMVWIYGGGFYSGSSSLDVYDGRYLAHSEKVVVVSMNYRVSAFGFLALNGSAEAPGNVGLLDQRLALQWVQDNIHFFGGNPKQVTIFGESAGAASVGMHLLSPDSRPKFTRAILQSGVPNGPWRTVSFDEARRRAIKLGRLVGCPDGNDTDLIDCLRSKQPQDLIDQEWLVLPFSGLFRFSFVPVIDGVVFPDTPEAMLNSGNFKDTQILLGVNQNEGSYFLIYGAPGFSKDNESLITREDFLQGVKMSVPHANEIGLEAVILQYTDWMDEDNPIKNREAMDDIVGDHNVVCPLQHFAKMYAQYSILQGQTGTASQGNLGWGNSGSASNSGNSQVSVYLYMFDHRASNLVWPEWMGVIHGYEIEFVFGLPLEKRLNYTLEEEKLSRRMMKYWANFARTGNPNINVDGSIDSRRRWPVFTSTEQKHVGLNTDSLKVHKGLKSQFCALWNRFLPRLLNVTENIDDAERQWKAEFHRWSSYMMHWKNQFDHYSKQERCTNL

Q: Which results are given for `Cc1cc(COC(=O)NCCCNc2c3c(nc4ccccc24)CCCC3)c(OCc2ccc(B3OC(C)(C)C(C)(C)O3)cc2)c(COC(=O)C(C)c2ccc(CC(C)C)cc2)c1` (stereo not given)?
A: Activity [1]: Toxic; viability at 5 µM [2]: > 50%; viability at 20 µM [3]: > 80%; inhibition [4]: 32.9%; IC50 [5]: 302 nM

Q: What does the source list for `Cc1cc(COC(=O)NCCCCCCNc2c3c(nc4ccccc24)CCCC3)c(OCc2ccc(B3OC(C)(C)C(C)(C)O3)cc2)c(COC(=O)C(C)c2ccc(CC(C)C)cc2)c1` (stereo not given)?
A: Activity [6]: Non-Toxic; viability at 5 µM [2]: > 50%; viability at 20 µM [3]: > 80%; inhibition [4]: 47.2%; IC50 [5]: 39.2 nM; Activity [7]: Dose-dependent effect; Activity [8]: Dose-dependent effect; fold change (FC) [9]: 1.36; fold change (FC) [10]: 0.86; fold change (FC) [11]: 1.6; fold change (FC) [12]: 1.2; Activity [13]: Active; Activity [14]: 1.65%; Activity [15]: 2.57%; Activity [16]: 2.48%; viability at 5 µM [17]: 73.7%; Activity [18]: 1.75%; Activity [19]: 10.5%; Activity [20]: 14.1%; viability at 10 µM [21]: 86.6%; Activity [22]: 1.17%; Activity [23]: 4.97%; Activity [24]: 7.3%; Activity [25]: Dose-dependent effect; Activity [26]: Toxic; Activity [27]: Active; Activity [28]: Dose-dependent effect; Activity [29]: Dose-dependent effect; Activity [30]: Dose-dependent effect; Activity [31]: Active; Time [32]: 2.2 s; Activity [33]: 4.2; Drug metabolism [34]: Metabolite_Detected; viability at 24 h, 5 µM [35]: 90.4%

Q: Which results are given for `Cc1cc(COC(=O)NCCNc2c3c(nc4ccccc24)CCCC3)c(OCc2ccc(B3OC(C)(C)C(C)(C)O3)cc2)c(COC(=O)C(C)c2ccc(CC(C)C)cc2)c1` (stereo not given)?
A: Activity [6]: Toxic; Activity [36]: Non-Toxic; viability at 5 µM [2]: > 50%; viability at 20 µM [3]: > 80%; inhibition [4]: 28.2%; IC50 [5]: 608 nM
